Data taken from US20230416227A1, “PLASMA KALLIKREIN INHIBITORS” (Merck Sharp & Dohme LLC, priority 2020, published 2023).

What was measured:
[1] = biological target: human factor XIa (Homo sapiens, UniProt P03951); assay: Factor XIa Assay; assay type: biochemical; settings: human factor XIa 0.04 nM, substrate GPR-AFC, 30 min pre-incubation at 25° C., pH 7.4; read-out: FXIa IC50
[2] = biological target: T1, Human plasma kallikrein (Homo sapiens, UniProt P03952); assay: Plasma Kallikrein Assay; assay type: biochemical; settings: purified Human plasma kallikrein 0.5 nM, substrate Acetyl-K-P-R-AFC, pH 7.4
T1 construct: yields a heavy chain (371 amino acids) and a light chain (248 amino acids); purchased Enzyme Research Laboratories
T1 sequence (P03952 391-638 limits assumed): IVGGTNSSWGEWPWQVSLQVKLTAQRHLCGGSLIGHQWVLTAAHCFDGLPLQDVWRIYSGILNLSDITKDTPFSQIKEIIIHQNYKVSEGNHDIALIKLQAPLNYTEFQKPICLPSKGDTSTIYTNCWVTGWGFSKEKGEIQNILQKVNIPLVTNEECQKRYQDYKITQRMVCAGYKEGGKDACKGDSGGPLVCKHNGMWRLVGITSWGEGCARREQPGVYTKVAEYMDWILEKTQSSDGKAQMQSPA
T1 sequence (P03952 20-390 partner limits assumed): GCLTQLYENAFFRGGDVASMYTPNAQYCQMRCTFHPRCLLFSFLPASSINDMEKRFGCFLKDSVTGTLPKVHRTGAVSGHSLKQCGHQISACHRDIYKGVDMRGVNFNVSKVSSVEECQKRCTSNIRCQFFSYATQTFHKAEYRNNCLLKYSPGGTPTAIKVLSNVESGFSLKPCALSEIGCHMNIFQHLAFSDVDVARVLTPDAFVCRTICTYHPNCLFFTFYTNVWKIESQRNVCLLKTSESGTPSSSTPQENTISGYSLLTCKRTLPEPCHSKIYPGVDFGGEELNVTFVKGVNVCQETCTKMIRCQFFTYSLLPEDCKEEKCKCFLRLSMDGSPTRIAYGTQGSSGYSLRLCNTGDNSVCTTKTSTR

Sequence of human factor XIa (P03951 388-625 limits assumed): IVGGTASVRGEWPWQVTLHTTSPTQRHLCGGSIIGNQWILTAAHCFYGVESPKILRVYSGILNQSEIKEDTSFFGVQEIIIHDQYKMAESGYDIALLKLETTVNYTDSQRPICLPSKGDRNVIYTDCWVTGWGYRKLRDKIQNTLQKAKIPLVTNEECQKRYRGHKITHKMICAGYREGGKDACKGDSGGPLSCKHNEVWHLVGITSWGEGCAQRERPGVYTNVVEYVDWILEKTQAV
Sequence of human factor XIa (P03951 19-387 partner limits assumed): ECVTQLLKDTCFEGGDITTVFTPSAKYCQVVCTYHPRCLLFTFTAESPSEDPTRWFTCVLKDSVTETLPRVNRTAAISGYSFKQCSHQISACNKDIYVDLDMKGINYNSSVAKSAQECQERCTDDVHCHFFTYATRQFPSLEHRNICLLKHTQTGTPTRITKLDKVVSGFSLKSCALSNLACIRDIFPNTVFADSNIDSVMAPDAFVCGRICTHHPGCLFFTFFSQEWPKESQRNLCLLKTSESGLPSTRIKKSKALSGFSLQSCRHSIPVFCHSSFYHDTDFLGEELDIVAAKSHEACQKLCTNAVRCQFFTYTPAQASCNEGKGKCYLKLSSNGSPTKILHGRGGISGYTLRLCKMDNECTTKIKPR

| Structure (SMILES) | IC50 [1] | IC50 [2] |
| --- | --- | --- |
| CC1(O)CN(C[C@@H]2CCCN2c2ncc(Cn3cc(NC(=O)c4cncc(-c5c(C(F)F)ccc(Cl)c5F)n4)cn3)cn2)C1 [Example 152, (S)-6-(3-Chloro-6-(difluoromethyl)-2-fluorophenyl)-N-(1-((2-(2-((3-hydroxy-3-methylazetidin-1-yl)methyl)pyrrolidin-1-yl)pyrimidin-5-yl)methyl)-1H-pyrazol-4-yl)pyrazine-2-carboxamide] | 6020 nM | 1 nM |
| Cc1ncc(-c2c(C(F)F)ccc(Cl)c2F)nc1C(=O)Nc1cnn(C(C)c2cnc(N3CCC3)nc2)c1 (single isomer, unassigned) [Example 27, (S or R)-N-(1-(1-(2-(azetidin-1-yl)pyrimidin-5-yl)ethyl)-1H-pyrazol-4-yl)-6-(3-chloro-6-(difluoromethyl)-2-fluorophenyl)-3-methylpyrazine-2-carboxamide] | 869 nM | 3.8 nM |
| CC(c1cnc(N2CC[C@H]2CN2C[C@@H](O)[C@H](O)C2)nc1)n1cc(NC(=O)c2cncc(-c3c(C(F)F)ccc(Cl)c3F)n2)cn1 (stereo partly drawn) [Example 168, 6-(3-Chloro-6-(difluoromethyl)-2-fluorophenyl)-N-(1-(1-(2-((S)-2-(((3R,4R)-3,4-dihydroxypyrrolidin-1-yl)methyl)azetidin-1-yl)pyrimidin-5-yl)ethyl)-1H-pyrazol-4-yl)pyrazine-2-carboxamide] | 6350 nM | 2 nM |
| CC(c1ccc(N2CCC2)nc1)n1cc(NC(=O)c2cncc(-c3c(C(F)F)ccc(Cl)c3F)n2)cn1 (single isomer, unassigned) [Example 37, (S or R)-N-(1-(1-(6-(azetidin-1-yl)pyridin-3-yl)ethyl)-1H-pyrazol-4-yl)-6-(3-chloro-6-(difluoromethyl)-2-fluorophenyl)pyrazine-2-carboxamide] | 2700 nM | 25.6 nM |
| CN(CC1CCCN1c1ncc(Cn2cc(NC(=O)c3cncc(-c4c(C(F)F)ccc(Cl)c4F)n3)cn2)cn1)CC1(O)CC1 (single isomer, unassigned) [Example 141, (R or S)-6-(3-Chloro-6-(difluoromethyl)-2-fluorophenyl)-N-(1-((2-(2-((((1-hydroxycyclopropyl)methyl)(methyl)amino)methyl)pyrrolidin-1-yl)pyrimidin-5-yl)methyl)-1H-pyrazol-4-yl)pyrazine-2-carboxamide] | 4730 nM | 0.3 nM |
| CC(c1cnc(N2CCC2)nc1)n1cc(NC(=O)c2cncc(-c3cc(Cl)ccc3-n3cnnn3)n2)cn1 (single isomer, unassigned) [Example 58, (S or R)-N-(1-(1-(2-(Azetidin-1-yl)pyrimidin-5-yl)ethyl)-1H-pyrazol-4-yl)-6-(5-chloro-2-(1H-tetrazol-1-yl)phenyl)pyrazine-2-carboxamide] | 413 nM | 8.1 nM |
| CC(c1cnc(N2CC3(CC3)C2)nc1)n1cc(NC(=O)c2cncc(-c3c(C(F)F)ccc(Cl)c3F)n2)cn1 (single isomer, unassigned) [Example 93, (R or S)-N-(1-(1-(2-(5-Azaspiro[2.3]hexan-5-yl)pyrimidin-5-yl)ethyl)-1H-pyrazol-4-yl)-6-(3-chloro-6-(difluoromethyl)-2-fluorophenyl)pyrazine-2-carboxamide] | 4310 nM | 19.9 nM |
| O=C(Nc1cnn(Cc2cnc(N3CCC3)nc2C2CC2)c1)c1cncc(-c2c(C(F)F)ccc(Cl)c2F)n1 [Example 22, N-(1-((2-(Azetidin-1-yl)-4-cyclopropylpyrimidin-5-yl)methyl)-1H-pyrazol-4-yl)-6-(3-chloro-6-(difluoromethyl)-2-fluorophenyl)pyrazine-2-carboxamide] | 4370 nM | 22.3 nM |
| COc1nc(N2CCC2)ncc1Cn1cc(NC(=O)c2cncc(-c3c(C(F)F)ccc(Cl)c3F)n2)cn1 [Example 23, N-(1-((2-(Azetidin-1-yl)-4-methoxypyrimidin-5-yl)methyl)-1H-pyrazol-4-yl)-6-(3-chloro-6-(difluoromethyl)-2-fluorophenyl)pyrazine-2-carboxamide] | 1760 nM | 26 nM |
| CC(c1cnc(N2CCC2)nc1)n1cc(NC(=O)c2cncc(-c3c(Br)ccc(Cl)c3F)n2)cn1 (stereo not shown) [Example 62, N-(1-(1-(2-(Azetidin-1-yl)pyrimidin-5-yl)ethyl)-1H-pyrazol-4-yl)-6-(6-bromo-3-chloro-2-fluorophenyl)pyrazine-2-carboxamide] | 2150 nM | 17.8 nM |
| O=C(Nc1cnn(Cc2cnc(N3C[C@H]4C[C@H]4[C@H]3CNCC(O)C(F)F)nc2)c1)c1cncc(-c2c(C(F)F)ccc(Cl)c2F)n1 (stereo partly drawn) [Example 150, 6-(3-Chloro-6-(difluoromethyl)-2-fluorophenyl)-N-(1-((2-((1R,2S,5S)-2-(((3,3-difluoro-2-hydroxypropyl)amino)methyl)-3-azabicyclo[3.1.0]hexan-3-yl)pyrimidin-5-yl)methyl)-1H-pyrazol-4-yl)pyrazine-2-carboxamide] | 650 nM | 0.6 nM |

Now from value to molecule:

| IC50 [1] | IC50 [2] | Structure (SMILES) |
| --- | --- | --- |
| 5190 nM | 1 nM | CC(c1cnc(N2CC[C@H]2CN2CC[C@H](O)C2)nc1)n1cc(NC(=O)c2cncc(-c3c(C(F)F)ccc(Cl)c3F)n2)cn1 (stereo partly drawn) [Example 162, 6-(3-Chloro-6-(difluoromethyl)-2-fluorophenyl)-N-(1-(1-(2-((S)-2-(((S)-3-hydroxypyrrolidin-1-yl)methyl)azetidin-1-yl)pyrimidin-5-yl)ethyl)-1H-pyrazol-4-yl)pyrazine-2-carboxamide] |
| 5350 nM | 45.9 nM | O=C(Nc1cnn(S(=O)(=O)c2ccc(N3CCC3)nc2)c1)c1cncc(-c2c(C(F)F)ccc(Cl)c2F)n1 [Example 26, N-(1-((6-(Azetidin-1-yl)pyridin-3-yl)sulfonyl)-1H-pyrazol-4-yl)-6-(3-chloro-6-(difluoromethyl)-2-fluorophenyl)pyrazine-2-carboxamide] |
| 1520 nM | 8.1 nM | CC(c1cnc(N2CC3CC3C2)nc1)n1cc(NC(=O)c2cncc(-c3c(C(F)F)ccc(Cl)c3F)n2)cn1 (single isomer, unassigned) [Example 32, N-(1-((1R or 1S)-1-(2-(3-azabicyclo[3.1.0]hexan-3-yl)pyrimidin-5-yl)ethyl)-1H-pyrazol-4-yl)-6-(3-chloro-6-(difluoromethyl)-2-fluorophenyl)pyrazine-2-carboxamide] |
| 662 nM | 14 nM | COc1ccc(-n2cnnn2)c(-c2cncc(C(=O)Nc3cnn(C(C)c4cnc(N5CCC5)nc4)c3)n2)c1 (single isomer, unassigned) [Example 61, (R or S)-N-(1-(1-(2-(Azetidin-1-yl)pyrimidin-5-yl)ethyl)-1H-pyrazol-4-yl)-6-(5-methoxy-2-(1H-tetrazol-1-yl)phenyl)pyrazine-2-carboxamide] |
| 485 nM | 1.4 nM | Cc1nc(N2CCC2)ncc1[C@@H](C)n1cc(NC(=O)c2cncc(-c3c(C(F)F)ccc(Cl)c3F)n2)cn1 (single isomer, unassigned) [Example 70] |
| 8800 nM | 11 nM | CC(c1cnc(N2C[C@H]3C[C@H]3[C@H]2C(N)=O)nc1)n1cc(NC(=O)c2cncc(-c3c(C(F)F)ccc(Cl)c3F)n2)cn1 (relative stereo) [Example 195, (cis)-3-(5-(1-(4-(6-(3-Chloro-6-(difluoromethyl)-2-fluorophenyl)pyrazine-2-carboxamido)-1H-pyrazol-1-yl)ethyl)pyrimidin-2-yl)-3-azabicyclo[3.1.0]hexane-2-carboxamide] |
| 6090 nM | 41.3 nM | O=C(Nc1cnn(Cc2cnc(N3CCC3)nc2)n1)c1cncc(-c2c(C(F)F)ccc(Cl)c2F)n1 [Example 25, N-(2-((2-(Azetidin-1-yl)pyrimidin-5-yl)methyl)-2H-1,2,3-triazol-4-yl)-6-(3-chloro-6-(difluoromethyl)-2-fluorophenyl)pyrazine-2-carboxamide] |
| 3940 nM | 7.4 nM | NCC1CCCN1c1ncc(Cn2cc(NC(=O)c3cncc(-c4c(C(F)F)ccc(Cl)c4F)n3)cn2)cn1 (stereo not shown) [Example 81, N-(1-((2-(2-(Aminomethyl)pyrrolidin-1-yl)pyrimidin-5-yl)methyl)-1H-pyrazol-4-yl)-6-(3-chloro-6-(difluoromethyl)-2-fluorophenyl)pyrazine-2-carboxamide] |
| 5080 nM | 0.6 nM | CC(c1cnc(N2CC[C@H]2CN2CC(C(C)(C)O)C2)nc1)n1cc(NC(=O)c2cncc(-c3c(C(F)F)ccc(Cl)c3F)n2)cn1 (stereo partly drawn) [Example 175, 6-(3-Chloro-6-(difluoromethyl)-2-fluorophenyl)-N-(1-(1-(2-((S)-2-((3-(2-hydroxypropan-2-yl)azetidin-1-yl)methyl)azetidin-1-yl)pyrimidin-5-yl)ethyl)-1H-pyrazol-4-yl)pyrazine-2-carboxamide] |
| 4100 nM | 21.2 nM | O=C(O)c1ncc(-c2c(C(F)F)ccc(Cl)c2F)nc1C(=O)Nc1cnn(Cc2cnc(N3CCC3)nc2)c1 [Example 137, 3-((1-((2-(Azetidin-1-yl)pyrimidin-5-yl)methyl)-1H-pyrazol-4-yl)carbamoyl)-5-(3-chloro-6-(difluoromethyl)-2-fluorophenyl)pyrazine-2-carboxylic acid] |
| 927 nM | 11.9 nM | Cc1ncc(-c2c(C(F)F)ccc(Cl)c2F)nc1C(=O)Nc1cnn(C(C)c2cnc(N3CCC3)nc2)c1 (single isomer, unassigned) [Example 28, (R or S)-N-(1-(1-(2-(azetidin-1-yl)pyrimidin-5-yl)ethyl)-1H-pyrazol-4-yl)-6-(3-chloro-6-(difluoromethyl)-2-fluorophenyl)-3-methylpyrazine-2-carboxamide] |
| 3660 nM | 29.8 nM | CC(c1cnc(N2CC3(CC3)C2)nc1)n1cc(NC(=O)c2cncc(-c3c(C(F)F)ccc(Cl)c3F)n2)cn1 (stereo not shown) [Example 99, N-(1-(1-(2-(5-Azaspiro[2.3]hexan-5-yl)pyrimidin-5-yl)ethyl)-1H-pyrazol-4-yl)-6-(3-chloro-6-(difluoromethyl)-2-fluorophenyl)pyrazine-2-carboxamide] |
